Patent US11859169B2, “Nano-ligand for promoting cell adhesion and regeneration of macrophages and method of promoting cell adhesion and regeneration of macrophages by using the same” (Korea University Research and Business Foundation, priority 2020, dated 2024)

Test system: Macrophages (RAW 264.7)
Experiment: adhesion structure assembly-mediated M2 phenotype under ROCK, myosin II or actin polymerization inhibition
Type: cell-based
Conditions: M2-polarizing medium; for reduction of Arg-1 immunofluorescence on the magnet side / reduction of adherent macrophage area on the magnet side / reduction of adherent macrophage aspect ratio on the magnet side: 36 hours, 50 μM Y27632, 10 μM blebbistatin

Structure (SMILES) | reduction of Arg-1 immunofluorescence on the magnet side | reduction of adherent macrophage area on the magnet side | reduction of adherent macrophage aspect ratio on the magnet side | decreases in the area, aspect ratio, and Arg-1 fluorescence of the adherent macrophages (2 μg/mL cytochalasin D)
C[C@@H](N)[C@H]1CC[C@H](C(=O)Nc2ccncc2)CC1 [Y27632] | 29% | 32% | 33% | –
Cc1ccc2c(c1)C(=O)C1(O)CCN(c3ccccc3)C1=N2 (stereo not shown) [blebbistatin] | 29% | 33% | 31% | –
C=C1[C@@H](C)[C@H]2[C@H](Cc3ccccc3)NC(=O)[C@]23[C@H](OC(C)=O)/C=C/[C@@](C)(O)C(=O)[C@@H](C)C/C=C/[C@H]3[C@@H]1O [cytochalasin D] | – | – | – | clearly observed
